Experimental data as given in patent US11286268B1, “EIF4E-inhibiting compounds and methods” (EFFECTOR THERAPEUTICS, INC., priority 2019, dated 2022).
Like-named read-outs stand apart in the source and are kept apart here.

Biological target: recombinant eIF4E (Homo sapiens (Human), UniProt P06730)
Assay: Fluorescence polarization competition assay for eIF4E binding potency
Protocol: Compounds were screened for eIF4E binding potency using a fluorescence polarization competition assay. All binding reactions were performed in fluorescence polarization buffer (FPB) containing 20 mM Tris pH 7.5, 100 mM NaCl, 1 mM DTT, and 0.02% Tween-20. Final binding reactions contained 75 nM recombinant eIF4E (Beryllium, custom order), 20 nM EDA-m^7GDP-ATTO-550 (Jena Bioscience, NU-827-550) and varying concentrations of the inhibitory compound of interest. Final DMSO concentration in each reaction was 1%.
eIF4E protein was pre-incubated with EDA-m^7GDP-ATTO-550 in FPB at 2× concentrations for 5 minutes prior to the addition of compounds. Compounds (100×) were prepared using 3-fold serial dilutions in 100% DMSO, and subsequently diluted 1:50 in FPB to produce 2× stocks. 50 μl of 2× eIF4E/EDA-m^7GDP-ATTO-550 were transferred to the wells of a 96-well half-area black flat bottom polystyrene plate. 50 μl of 2× test compound were added, and binding reactions were allowed to equilibrate for 30 minutes at room temperature while protected from light. The fluorescent polarization signal was detected using a Victor 2 multi-label counter (Perkin Elmer) and the concentration necessary to achieve inhibition of eIF4E/EDA-m^7GDP-ATTO-550 binding by 50% (IC50) was calculated using data from an 8-point compound dilution series.
In Table 4A, IC50 values of less than 0.05 μM are labelled as “+++”, from 1 to 0.05 μM are labelled as “++”, and greater than 1 μM are labelled as “+”. ND=not determined.

[1] = fluorescence polarization competition, 75 nM recombinant eIF4E, 20 nM EDA-m7GDP-ATTO-550, IC50 class, read-out: elF4E FP
[2] = inhibition of eIF4E/EDA-m7GDP-ATTO-550 binding by 50%, Table 4B calculated values, read-out: IC50

Sequence of recombinant eIF4E (P06730 whole entry): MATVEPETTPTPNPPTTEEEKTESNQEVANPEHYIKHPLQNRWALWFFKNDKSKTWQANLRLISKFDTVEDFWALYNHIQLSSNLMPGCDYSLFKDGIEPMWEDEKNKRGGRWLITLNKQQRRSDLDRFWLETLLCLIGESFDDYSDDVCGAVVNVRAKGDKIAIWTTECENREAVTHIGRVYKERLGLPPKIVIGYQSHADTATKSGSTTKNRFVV

Row | Compound | IC50 [1] [nM] | IC50 [2] [nM]
1 | N#Cc1cc2c(=O)n(CCOc3ccc(O)cc3-c3cccc(C(=O)O)c3)cnc2cn1 [compound 125] | > 1000 | > 3000
2 | N#Cc1cc2c(=O)n(CCOc3ccc(C(F)F)cc3-c3cccc(C(=O)O)c3)cnc2cn1 [compound 126] | > 1000 | 8360
3 | C#Cc1c(C(=O)O)cccc1-c1cc(Cl)ccc1OCCn1cnc2cnc(C#N)cc2c1=O [compound 127] | 50 to 1000 | 77
4 | N#Cc1cc2c(=O)n(CCOc3ccc(Cl)cc3-c3cccc(-c4nn[nH]n4)c3)cnc2cn1 [compound 128] | 50 to 1000 | 970
5 | CC(COc1ccc(Cl)cc1-c1cccc(C(=O)O)c1)n1cnc2cnc(C#N)cc2c1=O (centres unmarked) [compound 129] | > 1000 | 3100
6 | N#Cc1cc2c(=O)n(CC#Cc3ccc(Cl)cc3-c3cccc(C(=O)O)c3)cnc2cn1 [compound 130] | > 1000 | 1420
7 | CC(=O)Nc1cc2c(=O)n(CCOc3ccc(Cl)cc3-c3cccc(C(=O)O)c3)cnc2cn1 [compound 131] | 50 to 1000 | 600
8 | CNC(=O)c1cc2c(=O)n(CCOc3ccc(Cl)cc3-c3cccc(C(=O)O)c3)cnc2cn1 [compound 132] | 50 to 1000 | 624
9 | N#Cc1c(C(F)(F)F)ccc2ncn(CCOc3ccc(Cl)cc3-c3cccc(C(=O)O)c3)c(=O)c12 [compound 133] | 50 to 1000 | 66.5
10 | Cc1nc2cnc(C#N)cc2c(=O)n1CCOc1ccc(Cl)cc1-c1ccnc(C(=O)O)c1 [compound 134] | 50 to 1000 | 116
11 | O=C(O)c1cccc(-c2cc(Cl)ccc2OCCn2cnc3cnc(-n4cccn4)cc3c2=O)c1 [compound 136] | 50 to 1000 | 199
12 | CNC(=O)Cc1cc2c(=O)n(CCOc3ccc(Cl)cc3-c3cccc(C(=O)O)c3)cnc2cn1 [compound 137] | 50 to 1000 | 904
13 | Cc1cc2c(=O)n(CCOc3ccc(Cl)cc3-c3cccc(C(=O)O)c3)cnc2cn1 [compound 138] | 50 to 1000 | 279
14 | N#Cc1cc(C(F)F)cc2ncn(CCOc3ccc(Cl)cc3-c3cccc(C(=O)O)c3)c(=O)c12 [compound 139] | < 50 | 34.6
15 | Cc1nc2cncc(C#N)c2c(=O)n1CCOc1ccc(Cl)cc1-c1ccnc2c(C(=O)O)csc12 [compound 140] | 50 to 1000 | 50
16 | Cc1nc2ccc(Cl)c(C#N)c2c(=O)n1CCOc1ccc(Cl)cc1-c1cccc(C(=O)O)c1 [compound 141] | < 50 | 44.2
17 | Cc1nc2c(C(F)(F)F)ccc(C#N)c2c(=O)n1CCOc1ccc(Cl)cc1-c1cccc(C(=O)O)c1 [compound 142] | 50 to 1000 | 152
18 | N#Cc1cccc2nc(C(F)F)n(CCOc3ccc(Cl)cc3-c3ccnc4c(C(=O)O)csc34)c(=O)c12 [compound 143] | < 50 | 16.7
19 | Cc1nc2cc(C(F)(F)F)cc(C#N)c2c(=O)n1C/C=C/c1ccc(Cl)cc1-c1cccc(C(=O)O)c1 [compound 145] | 50 to 1000 | 95.9
20 | Cc1nc2cc(C(F)(F)F)cc(C#N)c2c(=O)n1CCCc1ccc(Cl)cc1-c1cccc(C(=O)O)c1 [compound 146] | 50 to 1000 | 259
21 | Cc1nc2cncc(C#N)c2c(=O)n1CCOc1ccc(Cl)cc1-c1ccc(C(=O)O)c(C(=O)O)c1 [compound 147] | < 50 | 14.7
22 | N#Cc1cccc2nc(C(F)F)n(CCOc3ccc(Cl)cc3-c3ccc(C(=O)O)c(C(=O)O)c3)c(=O)c12 [compound 148] | < 50 | 20.5
23 | Cc1nc2cncc(C#N)c2c(=O)n1CC#Cc1ccc(Cl)cc1-c1ccc(C(=O)O)c(C(=O)O)c1 [compound 149] | 50 to 1000 | 110
24 | Cc1nc2cc(C(F)F)cc(C#N)c2c(=O)n1CCOc1ccc(Cl)cc1-c1cccc(C(=O)O)c1 [compound 153] | 50 to 1000 | 54
25 | Cc1nc2cc(C(F)(F)F)nc(C#N)c2c(=O)n1CCOc1ccc(Cl)cc1-c1cccc(C(=O)O)c1 [compound 154] | 50 to 1000 | 
26 | C#Cc1c(C(=O)O)cccc1-c1cc(Cl)ccc1OCCn1c(C)nc2cncc(C#N)c2c1=O [compound 155] | < 50 | 45.5

Second part, the molecule after the results:

Row | IC50 [1] [nM] | IC50 [2] [nM] | Compound
27 | < 50 | 4.2 | C#Cc1c(C(=O)O)cccc1-c1cc(Cl)ccc1OCCn1c(C)nc2cc(C(F)(F)F)cc(C#N)c2c1=O [compound 156]
28 | < 50 | 48.3 | Cc1nc2cc(C(F)(F)F)cc(C#N)c2c(=O)n1CCOc1ccc(Cl)cc1-c1ccc(C(=O)O)c(C(=O)O)c1 [compound 158]
29 | < 50 | 30.9 | C#Cc1c(C(=O)O)cccc1-c1cc(Cl)ccc1OCCn1cnc2cc(C(F)(F)F)cc(C#N)c2c1=O [compound 159]
30 | < 50 | 8.83 | Cc1nc2ccc(C(F)F)c(C#N)c2c(=O)n1CCOc1ccc(Cl)cc1-c1ccnc2c(C(=O)O)csc12 [compound 160]
31 | 50 to 1000 |  | N#Cc1c(C(F)F)ccc2ncn(CCOc3ccc(Cl)cc3-c3ccnc(C(=O)O)c3)c(=O)c12 [compound 161]
32 | < 50 | 28.7 | N#Cc1cc(C(F)(F)F)cc2ncn(CCOc3ccc(Cl)cc3-c3ccnc(C(=O)O)c3)c(=O)c12 [compound 162]
33 | 50 to 1000 | 95.5 | C#Cc1c(-c2cc(Cl)ccc2OCCn2c(C(F)F)nc3cccc(C#N)c3c2=O)ccnc1C(=O)O [compound 163]
34 |  | 16.4 | N#Cc1cc(C(F)(F)F)cc2ncn(CCOc3ccc(Cl)cc3-c3ccnc4c(C(=O)O)csc34)c(=O)c12 [compound 164]
35 | 50 to 1000 | 106 | C#Cc1c(C(=O)O)cccc1-c1cc(Cl)ccc1OCCn1c(C(F)F)nc2cccc(C#N)c2c1=O [compound 165]
36 | < 50 | 35 | N#Cc1cccc2nc(C(F)F)n(CCOc3ccc(Cl)cc3-c3ccnc(C(=O)O)c3)c(=O)c12 [compound 166]
37 | 50 to 1000 | 101 | Cc1nc2cc(F)cc(C#N)c2c(=O)n1CCOc1ccc(Cl)cc1-c1cccc(C(=O)O)c1 [compound 167]
38 | < 50 | 37.2 | Cc1nc2cc(C(F)(F)F)cc(C#N)c2c(=O)n1CCOc1ccc(Cl)cc1-c1cccc(C(=O)O)c1C#N [compound 168]
39 | 50 to 1000 | 234 | C=Cc1c(C(=O)O)cccc1-c1cc(Cl)ccc1OCCn1c(C)nc2cc(C(F)(F)F)cc(C#N)c2c1=O [compound 169]
40 | 50 to 1000 | 845 | O=C(O)c1cccc(-c2cc(Cl)ccc2OCCc2cccc3nc[nH]c(=O)c23)c1 [compound 170]
41 | 50 to 1000 | 194 | CNc1nc2c(F)ccc(CCOc3ccc(Cl)cc3-c3cccc(C(=O)O)c3)c2c(=O)[nH]1 [compound 171]
42 | 50 to 1000 | 92.3 | CNc1nc2c(F)c(F)cc(CCOc3ccc(Cl)cc3-c3cccc(C(=O)O)c3)c2c(=O)[nH]1 [compound 172]
43 | 50 to 1000 | 141 | O=C(O)c1cccc(-c2cc(Cl)ccc2OCCc2cnc(C(F)F)c3nc(Nc4ccccc4)[nH]c(=O)c23)c1 [compound 173]
44 | 50 to 1000 | 52.1 | N#Cc1c(F)cc(CCOc2ccc(Cl)cc2-c2cccc(C(=O)O)c2)c2c(=O)[nH]c(Nc3ccccc3)nc12 [compound 174]
45 | < 50 | 20.4 | N#Cc1cn(CCOc2ccc(Cl)cc2-c2ccnc3c(C(=O)O)csc23)c2c(=O)[nH]c(Nc3ccccc3)nc12 [compound 175]
46 | < 50 | 41.5 | O=C(O)c1cccc(-c2cc(Cl)ccc2OCCc2ccnc3nc(Nc4ccccc4)[nH]c(=O)c23)c1 [compound 176]
47 | < 50 | 26.8 | N#Cc1ncc(CCOc2ccc(Cl)cc2-c2cccc(C(=O)O)c2)c2c(=O)[nH]c(NCC(F)(F)F)nc12 [compound 177]
48 | 50 to 1000 | 140 | O=C(O)c1cccc(-c2cc(Cl)ccc2OCCc2cc(C(F)(F)F)nc3nc(Nc4ccccc4)[nH]c(=O)c23)c1 [compound 178]
49 | < 50 | 20.6 | N#Cc1ncc(CCOc2ccc(Cl)cc2-c2cccc(C(=O)O)c2)c2c(=O)[nH]c(Nc3ccccc3)nc12 [compound 179]
50 | < 50 | 47.7 | Cc1c(CCOc2ccc(Cl)cc2-c2ccnc3c(C(=O)O)csc23)c(=O)c2c(C#N)cc(C(F)(F)F)cc2n1C [compound 180]
51 | 50 to 1000 | 62.3 | N#Cc1cc(C(F)(F)F)cc2nc(CF)n(CCOc3ccc(Cl)cc3-c3ccnc4c(C(=O)O)csc34)c(=O)c12 [compound 181]
52 | < 50 | 43.8 | N#Cc1cc(C(F)(F)F)cc2nc(CF)n(CCOc3ccc(Cl)cc3-c3cccc(C(=O)O)c3)c(=O)c12 [compound 182]
53 | 50 to 1000 | 50.2 | Cc1nc2c(C(C)C)nc(N3CCN(CCF)CC3)c(C#N)c2c(=O)n1CCOc1ccc(Cl)cc1-c1ccnc2c(C(=O)O)csc12 [compound 183]
54 | 50 to 1000 |  | N#Cc1cncc2ncn(CCOc3ccc(Cl)cc3-c3ccc(C(=O)O)c(CCCCC(O)CO)c3)c(=O)c12 (centres unmarked) [compound 184]
